Experiment [1] concerns contact dermatitis induced by picryl chloride. The experiment in a line: Effect on contact dermatitis induced by picryl chloride in mice. The experiment is classed as in vivo. The settings on record: Mus musculus, po; test compounds, 20 mg/kg p.o. 12 hours after challenge; ear thickness at 24 hours; read-out: Inhibition (%) of increase of ear thickness. The procedure: Effect on contact dermatitis induced by picryl chloride in mice
The delayed type hypersensitization is inhibited by steroid, but can not be effected by known anti-allergic agents. In the following, the method of the pharmacological test will be explained.
Method: Mice, shaved their abdominal skin on previous day, were immunized by applying 0.1 ml of acetone containing 7 mg of picryl chloride to the skin of the abdomen. 7 days after immunization, the thickness of the ear was measured with a dial thickness gauge, then mice were challenged by painting […] of 1% picryl chloride olive oil solution to each side skin of left ear. 24 hours after challenge, the thickness of the left ear was measured again. The compounds of the present invention (test compounds) suspended in 0.5% MC were forcibly administered orally at a dose of 20 mg/kg 12 hours after challenge. As vehicle control group, only 0.5% MC solution was administered orally, and as positive control group, Prednisolone, steroid hormone, was administered orally at a dose of 10 mg/kg and as negative control group, Tranilast was administered orally at a dose of 200 mg/kg.
Increase (%)=(A-B)/B×100 (Equation 2)
A: thickness of the ear at 24 hours after challenge
B: thickness of the ear before challenge
Inhibition (%)=(C-D)/C×100 (Equation 3)
C: The increase (%) in vehicle control group
D: The increase (%) in test compounds group, positive control group

In experiment [2] the test system is passive cutaneous anaphylaxis (PCA) reaction. Description: Effect on homologous passive cutaneous anaphylaxis (PCA) reaction in rats. It counts as in vivo. The settings on record: Rattus norvegicus, po, 0.5 h; test compounds, 100 mg/kg p.o., 1 hour before induction of anaphylaxis, male wistar rats. As for the experimental part:
Effect on homologous passive cutaneous anaphylaxis (PCA) reaction in rats
This experimental animal model is caused by immediate type allergic reaction, namely, antigen-antibody reaction. In the following, the method of this pharmacological test will be explained.
Method: Male wistar rats (9 weeks old) were intradermally administered 0.05 ml of anti-serum against dinitrophenylated ascaris (DNP-As) into two sites on the shaved dorsal skin. 48 hours later, aminoquinolinone derivatives (test compounds) suspended in 0.5% methylcellulose (MC) were given orally at a dose of 100 mg/kg to the animals. 1 hour after administration of Test compounds, the animals were induced anaphylaxis by injection of saline (1 ml) dissolving 1 mg of trinitrophenylated ascaris (TNP-As) and 5 mg of Evans Blue into the tail vein of the animals. 30 minutes after induction of anaphylaxis, animals were anesthetized by ether and killed by bleeding, and were flayed dorsal skin. The leakage of dye was assessed by measuring the diameter (mean of shortest and longest diameter) of the blue spot on the inside surface of dorsal skin. As vehicle control group, only 0.5% MC solution was administered orally, and as positive control group, Tranilast suspended in 0.5% MC were administered orally at a dose of 200 mg/kg to the animals with the same method as the test compounds groups, The inhibition (%) of PCA reaction was calculated according to equation 1 and the result was shown in Table 1. Each experimental group consisted of 5 rats.
In the conditions of this experiment, it was considered that the compound, which inhibited PCA reaction by over forty (40) percent against that in vehicle control group, was evidently effective for immediate type allergy.
Inhibition (%)=(A-B)/A×100 (Equation 1)
A: leakage of dye in vehicle control group
B: leakage of dye in test compound group or positive control group

30 molecules from patent US5942521A, “Quinolinone derivative and anti-allergic agent with said quinolinone derivative as the active ingredient” (Dainippon Ink and Chemicals, Inc., priority 1996, dated 1999) can be followed below.

SMILES strings stand for the structures.

In the case of `CCCCCCNc1ccc2c(O)c(OC)c(=O)n(C)c2c1` [compound 27, 7-hexylamino-3-methoxy-4-hydroxy-1-methyl-2(1H)-quinolinone], in experiment [1], the inhibition in vivo at 20 mg/kg turned out to be 46%. Besides, the inhibition in vivo at 100 mg/kg in experiment [2] was found to be 45%.
For `CCCCCCCCOc1c(O)c2ccc(NC(C)=O)cc2n(C)c1=O` [compound 39, 7-acetylamino-3-octyloxy-4-hydroxy-1-methyl-2(1H)-quinolinone] the same measures were 48% and 50%.
With `CCOc1c(OC(C)=O)c(=O)n(C)c2cc(N)ccc12` [compound 20, 7-amino-3-acetoxy-4-ethoxy-1-methyl-2(1H)-quinolinone], the inhibition in vivo at 20 mg/kg in experiment [1] was 43%. In experiment [2], this molecule yielded an inhibition in vivo at 100 mg/kg of 41%.
For the molecule `CCCCCCOc1c(O)c2ccc(N)cc2n(CC)c1=O` [compound 32, 7-amino-3-hexyloxy-4-hydroxy-1-ethyl-2(1H)-quinolinone], in experiment [1], the inhibition in vivo at 20 mg/kg stood at 48%. The inhibition in vivo at 100 mg/kg in experiment [2] was found to be 44%.
Take `CCCCCCCCOc1c(O)c2ccc(NC(=O)/C=C/c3ccc(OC(C)=O)c(OC)c3)cc2n(C)c1=O` [compound 44, 7-(4-acetoxy-3-methoxycinnamoylamino)-3-octyloxy-4-hydroxy-1-methyl-2(1H)-quinolinone]: in experiment [1], the inhibition in vivo at 20 mg/kg is 53%. The same molecule showed an inhibition in vivo at 100 mg/kg in experiment [2] of 50%.
The corresponding values for `CCCCCCOc1c(O)c2ccc(NC(=O)/C=C/c3cc(OC)c(O)c(OC)c3)cc2n(C)c1=O` [compound 43, 7-(4-hydroxy-3,5-dimethoxycinnamoylamino)-3-hexyloxy-4-hydroxy-1-methyl-2(1H)-quinolinone] are 53% and 49%.
For `CNc1ccc2c(O)c(OC/C=C(\C)CCC=C(C)C)c(=O)n(C)c2c1` [compound 31, 7-methylamino-3-geranyloxy-4-hydroxy-1-methyl-2(1H)-quinolinone] the same measures were 45% and 46%.
The corresponding values for `Cn1c(=O)c(O)c(O)c2ccc(N)cc21` [compound 8, 7-amino-3,4-dihydroxy-1-methyl-2(1H)-quinolinone] are 41% and 48%.
For `CNc1ccc2c(OC)c(O)c(=O)n(C)c2c1` [compound 10, 7-methylamino-3-hydroxy-4-methoxy-1-methyl-2(1H)-quinolinone], in experiment [1], the inhibition in vivo at 20 mg/kg was 40%. This molecule had an inhibition in vivo at 100 mg/kg in experiment [2] of 42%.
For `CNc1ccc2c(O)c(OCC=C(C)C)c(=O)n(C)c2c1` [compound 30, 7-methylamino-3-prenyloxy-4-hydroxy-1-methyl-2(1H)-quinolinone] the same measures were 52% and 44%.
For `CCCCCCOc1c(O)c2ccc(N(C)C)cc2n(CCCC)c1=O` [compound 35, 7-dimethylamino-3-hexyloxy-4-hydroxy-1-butyl-2(1H)-quinolinone] the same measures were 46% and 45%.
The corresponding values for `C=CCOc1c(O)c2ccc(NC)cc2n(C)c1=O` [compound 29, 7-methylamino-3-(2-propenyloxy)-4-hydroxy-1-methyl-2(1H)-quinolinone] are 48% and 42%.
With `COc1c(OC(C)=O)c(=O)[nH]c2cc(N)ccc12` [compound 15, 7-amino-3-acetoxy-4-methoxy-2(1H)-quinolinone], the inhibition in vivo at 20 mg/kg in experiment [1] was 40%. Besides, the inhibition in vivo at 100 mg/kg in experiment [2] is 41%.
On to `CNc1ccc2c(OC)c(OC(C)=O)c(=O)n(C)c2c1` [compound 9], for which the inhibition in vivo at 20 mg/kg in experiment [1] worked out at 43%. This molecule came in with an inhibition in vivo at 100 mg/kg in experiment [2] of 45%.
Take `COc1c(OC(C)=O)c(=O)n(C)c2cc(N)ccc12` [compound 6, 7-amino-3-acetoxy-4-methoxy-1-methyl-2(1H)-quinolinone]: in experiment [1], the inhibition in vivo at 20 mg/kg came out at 43%. The inhibition in vivo at 100 mg/kg in experiment [2] came to 46%.
As for `CCCCCCCCOc1c(O)c(=O)n(C)c2cc(NC)ccc12` [compound 26, 7-methylamino-3-hydroxy-4-octyloxy-1-methyl-2(1H)-quinolinone], in experiment [1], the inhibition in vivo at 20 mg/kg came out at 39%. Also, in experiment [2], the inhibition in vivo at 100 mg/kg stood at 41%.
The corresponding values for `CCCCCCCCOc1c(O)c2ccc(NCc3ccccc3)cc2n(C)c1=O` [compound 47, 7-benzylamino-3-octyloxy-4-hydroxy-1-methyl-2(1H)-quinolinone] are 48% and 40%.
The corresponding values for `CCCCOc1c(O)c(=O)n(CCC)c2cc(N)ccc12` [compound 33, 7-amino-3-hydroxy-4-butyloxy-1-propyl-2(1H)-quinolinone] are 40% and 40%.
For `CCCCCCCCOc1c(O)c2ccc(NCC=C(C)C)cc2n(C)c1=O` [compound 48, 7-prenylamino-3-octyloxy-4-hydroxy-1-methyl-2(1H)-quinolinone] the same measures were 53% and 50%.
Take `CCCCNc1ccc2c(OC)c(O)c(=O)[nH]c2c1` [compound 17, 7-butylamino-3-hydroxy-4-methoxy-2(1H)-quinolinone]: in experiment [1], the inhibition in vivo at 20 mg/kg is 43%. Also, in experiment [2], the inhibition in vivo at 100 mg/kg amounted to 45%.
As for `CCCCCCCCOc1c(O)c2ccc(NC(=O)/C=C/c3ccc(O)c(OC)c3)cc2n(C)c1=O` [compound 45, 7-(4-hydroxy-3-methoxycinnamoylamino)-3-octyloxy-4-hydroxy-1-methyl-2(1H)-quinolinone], in experiment [1], the inhibition in vivo at 20 mg/kg turned out to be 44%. Moreover, in experiment [2], the inhibition in vivo at 100 mg/kg is 41%.
Regarding `CCCCCCCCOc1c(O)c2ccc(N)cc2n(C)c1=O` [compound 22, 7-amino-3-octyloxy-4-hydroxy-1-methyl-2(1H)-quinolinone], the inhibition in vivo at 20 mg/kg in experiment [1] was found to be 55%. Further, the inhibition in vivo at 100 mg/kg in experiment [2] is 57%.
The corresponding values for `CCCCCCCCNc1ccc2c(O)c(OC)c(=O)n(C)c2c1` [compound 24, 7-octylamino-3-methoxy-4-hydroxy-1-methyl-2(1H)-quinolinone] are 44% and 46%.
For `CCCCNc1ccc2c(OC)c(OC(C)=O)c(=O)[nH]c2c1` [compound 16, 7-butylamino-3-acetoxy-4-methoxy-2(1H)-quinolinone] the same measures were 36% and 42%.
In the case of `CCCCCCCCOc1c(O)c2ccc(NC(=O)c3ccccc3)cc2n(C)c1=O` [compound 49, 7-benzoylamino-3-octyloxy-4-hydroxy-1-methyl-2(1H1)-quinolinone], the inhibition in vivo at 20 mg/kg in experiment [1] came out at 43%. In experiment [2], this molecule yielded an inhibition in vivo at 100 mg/kg of 46%.
For `CCCCCCOc1c(O)c2ccc(N(C)C)cc2n(C)c1=O` [compound 25, 7-dimethylamino-3-hexyloxy-4-hydroxy-1-methyl-2(1H)-quinolinone] the same measures were 48% and 47%.
For `CCCCCCOc1c(O)c(=O)n(C)c2cc(NCCCC)ccc12` [compound 28, 7-butylamino-3-hydroxy-4-hexyloxy-1-methyl-2(1H)-quinolinone] the same measures were 37% and 42%.
The corresponding values for `CCCCCCOc1c(O)c(=O)n(C)c2cc(N)ccc12` [compound 23, 7-amino-3-hydroxy-4-hexyloxy-1-methyl-2(1H)-quinolinone] are 41% and 44%.
As for `CCCCn1c(=O)c(O)c(OC)c2ccc(N(C)C)cc21` [compound 36, 7-dimethylamino-3-hydroxy-4-methoxy-1-butyl-2(1H)-quinolinone], the inhibition in vivo at 20 mg/kg in experiment [1] came to 40%. For the same molecule, the inhibition in vivo at 100 mg/kg in experiment [2] is 41%.
On to `COc1c(O)c(=O)[nH]c2cc(N)ccc12` [compound 14, 7-amino-3-hydroxy-4-methoxy-2(1H)-quinolinone], for which the inhibition in vivo at 20 mg/kg in experiment [1] came out at 38%. In experiment [2], the inhibition in vivo at 100 mg/kg came to 44%.
